Assay results reported in patent publication US10314827B2, “Methods of use of cyclopamine analogs” (Infinity Pharmaceuticals, Inc., priority 2006, dated 2019).
Like-named read-outs stand apart in the source and are kept apart here.

Molecular target: Hedgehog pathway
Test: C3H10T1/2 osteoblast differentiation assay (alkaline phosphatase readout)
Assay type: cell-based, Mouse
Details: C3H10T1/2 cells, sonic Hedgehog 250 ng/ml, AP activity normalized to total protein, read-out: Differentiation Assay EC50 (approximate EC50 for inhibition)
Excerpt: Hedgehog pathway specific cancer cell killing effects may be ascertained using the following assay. C3H10T1/2 cells differentiate into osteoblasts when contacted with the sonic hedgehog peptide (Shh-N). Upon differentiation; these osteoblasts produce high levels of alkaline phosphatase (AP) which can be measured in an enzymatic assay (Nakamura et al., X BBRC (1997) 237:465). Compounds that block the differentiation of C3H10T1/2 into osteoblasts (a Shh dependent event) can therefore be identified by a reduction in AP production (van der Horst et al., Bone (2003) 33:899). The assay details are described below. The results approximate (EC50 for inhibition) of the differentiation assay is shown below in Table 1.
Mouse embryonic mesoderm fibroblasts C3H10T1/2 cells (obtained from ATCC) were cultured in Basal MEM Media (Gibco/Invitrogen) supplemented with 10% heat inactivated FBS (Hyclone), 50 units/ml penicillin and 50 ug/ml streptomycin (Gibco/Invitrogen) at 37° C. With 5% CO2 in air atmosphere.
C3H10T1/2 cells were plated in 96 wells with a density of 8×10^3 cells/well. Cells were grown to confluence (72 hrs). After sonic Hedgehog (250 ng/ml), and/or compound treatment, the cells were lysed in 110 μL of lysis buffer (50 mm Tris ph 7.4, 0.1% tritonx100), plates were sonicated and lysates spun through 0.2 μm PVDF plates (Corning). 40 μL of lysates was assayed for AP activity in alkaline buffer solution (Sigma) containing 1 mg/ml p-Nitrophenyl Phosphate. After incubating for 30 min at 37° C., the plates were read on an Envision plate reader at 405 nm. Total protein was quantified with a BCA protein assay kit from Pierce according to manufacturer's instructions. AP activity was normalized against total protein.

SMILES | EC50 | EC50 (Mus musculus, C3H 10T1/2)
CC1=C2C[C@H]3[C@@H](CC[C@@H]4CC(=O)CC[C@@]43C)[C@@H]2CC[C@@]2(C1)O[C@@H]1C[C@H](C)CN(CCNCC(=O)c3ccccc3)[C@H]1[C@H]2C [Compound 13] | < 20 nM | 
CC1=C2C[C@H]3[C@@H](CC[C@@H]4CC(=O)CC[C@@]43C)[C@@H]2CC[C@@]2(C1)O[C@@H]1C[C@H](C)CN[C@H]1[C@H]2C [Compound 1] |  | < 20 nM
CC(=O)N(C)CCN1C[C@@H](C)C[C@H]2O[C@]3(CC[C@@H]4C(=C(C)C3)C[C@H]3[C@H]4CC[C@@H]4CC(=O)CC[C@@]43C)[C@H](C)[C@@H]21 [Compound 22] |  | < 20 nM
CC1=C2C[C@H]3[C@@H](CCC4=CC(=O)CC[C@@]43C)[C@@H]2CC[C@@]2(C1)O[C@@H]1C[C@H](C)CN(CCN(C)C)[C@H]1[C@H]2C [Compound 20] | < 20 nM | 
CC1=C2C[C@H]3[C@@H](CC[C@@H]4CCCC[C@@]43C)[C@@H]2CC[C@@]2(C1)O[C@@H]1C[C@H](C)CN[C@H]1[C@H]2C [Compound 9] |  | > 100 nM
CC1=C2C[C@H]3[C@@H](CC[C@@H]4CC(=O)CC[C@@]43C)[C@@H]2CC[C@@]2(C1)O[C@@H]1C[C@H](C)CN(CCN(C)C(=O)CCc3ccccc3)[C@H]1[C@H]2C [Compound 24] |  | < 20 nM
